Each block holds one compound with its values, some of them ahead of it.
How the values were obtained:
IgG to SMX [1] = assay: Example 1: inhibition of IgG binding, ELISA, serum preincubated overnight with inhibitor; design: species or system human; conditions: for Reduction in percent binding: 20 microliter of 10 mg/ml inhibitor to 180 microliter serum, overnight; for inhibition of IgG binding (in words): serum dilutions 1:40, 1:80, 1:160
Protocol: This experiment was performed to determine the amount of binding inhibition achieved with various inhibitory agents. […] The experiments were performed in 96-well microtiter plates having 8 rows
designated A-H, and 12 columns designated 1-12. Each well of the microtiter plate was given a designation in accordance with the above grid system. All samples were diluted in phosphate buffered saline (PBS) to the designated dilution factor. The serum dilution levels used in this study were 1:40, 1:80 and 1:160, v/v.
A sample of each serum dilution was preincubated overnight with a IgG binding inhibitor selected from Table 2. A 2o-lambda (mioroliter) volume from a lo mg/ml solution of the selected inhibitor was added to a 180 lambda volume of the particular serum sample.
One hundred milligrams (I00 mg) of each of the listed compounds was weighed out and added to a 10 ml volume of 100% PBS so as to achieve a final concentration of 10 mg/ml by weight of the inhibitor.
In accordance with the aforedescribed system, the wells at Row A, columns 1 and 2 of the microtiter plate, received 100 microliters of phosphate buffered saline as a blank. Row A, columns 3 and 4, received normal serum diluted 1:40 in PBS, and served as a negative control. Row A, columns 5 and 6 received -00 microliters of a positive serum (i.e., serum sample positive for IgG to SMX) diluted -:40. Row A, columns 7 and 8, received positive serum diluted at 1:80. Similarly, Row A, columns 9 and 10, received 100 microliters positive serum diluted at 1:160. […] The completed microtiter plate consisted of the following sample distribution (see Table 3).
The present invention was tested using a modified ELISA assay. The specific ELISA used employs the following reagents, standards and antibodies.

IgG to SMX [2] = assay: Example 3: inhibition studies, ELISA, serum preincubated overnight with inhibitor; format: binding, human; conditions: serum 1:40
Protocol: This study was conducted to confirm results on binding inhibition obtained in Example 2. Two positive serums (i.e., positive for IgG to SMX) were employed, including the positive serum used in Examples 1 and 2. PBS (phosphate buffered saline) and a normal serum were also tested in this study.
All serum used were at a 1:40 final dilution. Serum was diluted in PBS.
Several binding inhibitors at various dilutions were used. The particular inhibitors and the dilutions thereof examined appear in Table 8, along with their numerical designations.
Positive serum samples were first preincubated overnight with 50 microliter of the numerically designated inhibitors (10 mg/ml inhibitor solution - See Example I).
A standard ELISA assay was conducted using a 96 well microtiter plate as described for Example I. Row A, wells 3 and 4, received normal serum diluted 1:40 in PBS. Other wells received 10 microliter of positive serum A (Row A, well 5 through Row F, well 6) or positive serum B (Row F, well 7 through Row H, well 6) at a 1:40 dilution in PBS.
That percent binding inhibition obtained for each sample appears at Table 10.

[3] = test system: IgE to SM (N^4 -SMX determinants); conditions: cited from earlier work
Ig to SMX = assay: Hapten inhibition of Ig binding to SMX-HSA (RAST for IgE, ELISA for IgG, IgA, IgM); design: species or system human; conditions: free inhibitor, specificity check
Source text: SMX-HSA was used in radioallergoasorbent test (RAST) assays for IgE and ELISA assays for IgG, IgA, and IgM.

IgG to SMX [4] = assay: Example 2: hapten inhibition of IgG binding, ELISA, no preincubation; design: species or system human; conditions: final serum dilution 1:80
Protocol: The assay was set up using a 96 well microtiter plate. None of the serum samples were preincubated with inhibitor. Serum used was positive (+) for IgG to SMX, and was used at a final dilution of […] for all wells.
A variety of binding inhibitors were employed at varying concentrations.
A 50 microliter volume of each numerically designated inhibitor was added each well of the plate. A 50 microliter volume of serum (1:40 dilution) positive to IgG to SMX was then added to each well. The final dilution of serum in each was then 1:80.
The microtiter plate was then shaken slightly to mix the contents of each well and then the standard ELISA assay was performed. The plate was then allowed to incubate for 2 hours at room temperature. The plates were then washed and the OD readings taken for each well.
Percent inhibition was then calculated for each sample on the basis of decrease in OD.

- Reduction in percent binding (IgG to SMX [1]; serum dilution 1:40): 28%
- Reduction in percent binding (IgG to SMX [1]; serum dilution 1:80): 50%
- Reduction in percent binding (IgG to SMX [1]; serum dilution 1:160): 42%
Compound: Cc1cc(NS(=O)(=O)c2ccc(N=Nc3cc(CC(N)C(=O)O)ccc3O)cc2)no1 (centres unmarked) [Inhibitor 3]
- % Reduction in OD (IgG to SMX [2]; inhibitor 0.1 mg/ml (Table 8)): 32%

Compound: CC1(C)SC(C(NC(=O)Cc2ccccc2)C(=O)NCc2ccccc2)NC1C(=O)O (centres unmarked) [Inhibitor 28]
- % Reduction in OD (IgG to SMX [2]; inhibitor 10 mg/ml (Table 8), serum A or B not stated): 0%

Compound: Cc1cc(NS(=O)(=O)c2ccc(N)cc2)no1 [SMX, Sulfamethoxazole, reference compound]
- inhibition of IgE binding of one highly reactive serum (in words) [3]: significantly inhibited
- inhibition of antibody binding to SMX-HSA (in words) (Ig to SMX): also inhibited binding, but were usually less efficient

- % Inhibition (IgG to SMX [4]; inhibitor 10 mg/ml): 32%
Compound: COC(=O)C(N)Cc1ccc(O)c(N=Nc2ccc(S(=O)(=O)Nc3cc(C)on3)cc2)c1 (centres unmarked) [SMX-Tyrosine Methyl ester]
- inhibition of IgG binding (in words) (IgG to SMX [1]): considerable inhibition at the 1:40 serum dilution only

- inhibition of IgG binding (in words) (IgG to SMX [1]): significantly inhibit binding
- % Inhibition (IgG to SMX [4]; inhibitor 0.1 mg/ml): 51%
- % Inhibition (IgG to SMX [4]; inhibitor 0.3 mg/ml): 54%
- % Inhibition (IgG to SMX [4]; inhibitor 1 mg/ml): 57%
- % Inhibition (IgG to SMX [4]; inhibitor 3 mg/ml): 70%
- % Inhibition (IgG to SMX [4]; inhibitor 10 mg/ml): 59%
Compound: Cc1cc(NS(=O)(=O)c2ccc(N=Nc3cc(CC(N)C(=O)O)ccc3O)cc2)no1 (centres unmarked) [SMX-Tyrosine]

Compound: COc1cc(Cc2cnc(N)nc2N)cc(OC)c1OC [Trimethoprim]
- inhibition of IgE binding of one highly reactive serum (in words) [3]: not

Compound: Cc1ccnc(NS(=O)(=O)c2ccc(N)cc2)n1 [sulfamerazine]
- inhibition of IgE binding of one highly reactive serum (in words) [3]: significantly inhibited

Compound: Cc1nnc(NS(=O)(=O)c2ccc(N)cc2)s1 [sulfamethizole]
- inhibition of IgE binding of one highly reactive serum (in words) [3]: significantly inhibited

Compound: Nc1ccc(S(=O)(=O)O)cc1 [sulfanilic acid]
- inhibition of IgE binding of one highly reactive serum (in words) [3]: not

- % Inhibition (IgG to SMX [4]; inhibitor 10 mg/ml): 54%
- inhibition of antibody binding to SMX-HSA (in words) (Ig to SMX; listed as N^4 -sulfamethoxazoyl histidine): among the most active
- inhibition of antibody binding to SMX-HSA (in words) (Ig to SMX; listed as SMX-HD): inhibition of binding
Compound: N^4 -sulfamethoxazoyl-L-histidine [SMX-Histidine]
- inhibition of IgG binding (in words) (IgG to SMX [1]): significant reduction in binding at the 1:80 and I:160 serum dilution, but none at the 1:40 dilution

Compound: N^4 -sulfamethoxazoyl-poly-L-tyrosine [SMX-poly-L-tyrosine]
- inhibition of IgG binding (in words) (IgG to SMX [1]): significantly inhibit binding
- % Inhibition (IgG to SMX [4]; inhibitor 0.1 mg/ml): 0%
- % Inhibition (IgG to SMX [4]; inhibitor 0.3 mg/ml): 2%
- % Inhibition (IgG to SMX [4]; inhibitor 1 mg/ml): 24%
- % Inhibition (IgG to SMX [4]; inhibitor 3 mg/ml): 46%
- % Inhibition (IgG to SMX [4]; inhibitor 10 mg/ml): 50%

Compound: SMX-Imidazole
- % Inhibition (IgG to SMX [4]; inhibitor 10 mg/ml): 61%

Compound: SMX-Lysine
- % Inhibition (IgG to SMX [4]; inhibitor 10 mg/ml): 51%

Compound: SMX-Tryptophan
- % Inhibition (IgG to SMX [4]; inhibitor 10 mg/ml): 52%

Compound: Sulfamerazine-Histidine
- % Inhibition (IgG to SMX [4]; inhibitor 10 mg/ml): 35%

Compound: Sulfamethizole-histidine [Sulfamethazole-histidine]
- % Inhibition (IgG to SMX [4]; inhibitor 10 mg/ml): 7%

Compound: Sulfanilic-Histidine
- % Inhibition (IgG to SMX [4]; inhibitor 10 mg/ml): 60%

Source: patent US5064637A, “Substituted sulfonamide derivatives which inhibit allergic reactions” (Board of Regents, The University of Texas System, priority 1989, dated 1991)
